Laboratory results taken from PMC8812735, “Discovery of triterpenoids as potent dual inhibitors of pancreatic lipase and human carboxylesterase 1” (Journal of Enzyme Inhibition and Medicinal Chemistry, 2022).
Read-outs that look alike come from different tables or passages of the source.

Key:
Assay type in all cases: biochemical
[1] = biological target: T1, hCES1A (Homo sapiens, UniProt P23141); assay: Inhibition of hCES1A-mediated NLMe hydrolysis in human liver microsomes
T1 construct: tissue Bioreclamation IVT lot No. X008067; host or cells: pooled human liver microsomes from 50 donors
T1 sequence (P23141 18-567): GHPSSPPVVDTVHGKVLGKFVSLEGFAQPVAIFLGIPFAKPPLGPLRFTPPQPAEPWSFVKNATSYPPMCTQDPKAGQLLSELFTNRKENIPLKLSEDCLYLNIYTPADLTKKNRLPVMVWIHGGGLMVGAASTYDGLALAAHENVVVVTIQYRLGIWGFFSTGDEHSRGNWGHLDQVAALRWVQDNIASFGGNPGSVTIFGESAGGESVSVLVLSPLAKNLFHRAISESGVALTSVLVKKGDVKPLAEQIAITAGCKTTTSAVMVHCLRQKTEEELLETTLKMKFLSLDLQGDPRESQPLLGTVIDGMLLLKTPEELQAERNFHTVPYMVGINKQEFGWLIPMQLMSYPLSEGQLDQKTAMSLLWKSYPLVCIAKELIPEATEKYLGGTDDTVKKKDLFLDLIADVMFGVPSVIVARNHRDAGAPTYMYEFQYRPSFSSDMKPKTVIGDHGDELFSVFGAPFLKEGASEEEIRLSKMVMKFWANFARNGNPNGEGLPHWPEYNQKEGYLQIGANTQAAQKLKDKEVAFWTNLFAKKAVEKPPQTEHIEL
Procedure: N-Alkylated D-luciferin methyl ester (NLMe), a Specific probe for hCES1A[45], was used for assessing the inhibitory effects for triterpenoids, and BNPP was used as a positive inhibitor of hCES1A. […] Then NLMe (2 µL, 0.15 mM) was added to start the reaction. After shaking the reaction in 37 °C incubator for 10 min, 50 µL of reaction solution was removed and mixed with LDR (50 µL) to terminate the reaction. A multi-mode microplate reader was used to detect the luminescence signal of NL (the hydrolysed metabolite of NLMe). The luminescence product of NL was measured at 580 nm (gain: 140). The final volume ratio of DMSO was less than 1% (V/V).
(§1) Subsequently, various concentrations of substrates (selected according to Km) and different concentrations of inhibitors were used to determine the corresponding reaction rate, and the second slope graph of the Lineweaver–Burk diagram was used as a function of the inhibitor to calculate the corresponding inhibition constant (Ki) value. All kinetic data were fitted by the following kinetic equations (a–c), for competitive (a), non-competitive (b) and mixed inhibition (c): (a) V=(VmaxS)/[Km(1+I/Ki)+S] (b) V=(VmaxS)/[(Km+S)×(1+I/Ki)] (c) V=(VmaxS)/[(Km+S)×(1+I/αKi)] where V is the hydrolytic velocity of the reaction, Vmax is the maximum velocity. S and I are substrate (4-MUO, NLMe) and inhibitor (compound 39/41) concentrations, respectively. Ki is the inhibition constant of the tested inhibitor against the target PL and hCES1A; Km is the Michaelis constant (the substrate concentration at half of the Vmax).
All measurements were made in triplicate and the data obtained in the experiment were shown as mean ± SD. The IC50 and Ki values of the compounds with strong inhibitory effect were evaluated by nonlinear regression with graphpad prism 7.0 software (GraphPad Software, Inc., La Jolla, CA).

[2] = biological target: T2, Pancreatic lipase (PL) (Sus scrofa, UniProt P00591); assay: Inhibition of PL-mediated 4-MUO hydrolysis; settings: 4-MUO substrate, mean ± SD (n = 3)
T2 construct: purchased Sigma Aldrich type II, Lot.SLBN9099V
T2 sequence (P00591 1-450): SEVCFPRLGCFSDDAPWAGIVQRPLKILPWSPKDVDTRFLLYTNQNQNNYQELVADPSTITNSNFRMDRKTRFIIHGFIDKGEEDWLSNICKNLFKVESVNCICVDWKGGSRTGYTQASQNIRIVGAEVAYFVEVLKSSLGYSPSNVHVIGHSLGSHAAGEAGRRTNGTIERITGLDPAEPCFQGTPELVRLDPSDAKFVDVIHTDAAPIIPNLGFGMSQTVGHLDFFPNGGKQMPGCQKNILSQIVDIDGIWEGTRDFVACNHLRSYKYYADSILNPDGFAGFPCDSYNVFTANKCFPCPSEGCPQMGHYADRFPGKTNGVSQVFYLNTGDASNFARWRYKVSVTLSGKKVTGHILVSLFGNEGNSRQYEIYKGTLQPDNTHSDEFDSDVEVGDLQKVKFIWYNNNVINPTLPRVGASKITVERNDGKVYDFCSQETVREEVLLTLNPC
Procedure: In addition, the background fluorescence in the absence of an enzyme source (PL) (add the same amount of citrate-Na2HPO4 buffer) was measured. […] Then start the reaction by adding 2 µL of 4-MUO probe (3 µM, final concentration). The fluorescence signal of 4-MU (hydrolytic metabolite) was detected by multi-mode microplate reader (SpectraMax M4, Molecular Devices, Urstein, Austria) with continuous oscillation for 20 min and recorded and analysed at 60 s intervals. The excitation wavelength and emission wavelength of 4-MU were set at 340 nm and 460 nm, respectively, and the gain value was 500.
as §1
All measurements were made in triplicate and the data obtained in the experiment were shown as mean ± SD.

[3] = biological target: T3, hCES2A (Homo sapiens, UniProt O00748); assay: Inhibition of hCES2A-mediated FD hydrolysis
T3 sequence (O00748 27-559): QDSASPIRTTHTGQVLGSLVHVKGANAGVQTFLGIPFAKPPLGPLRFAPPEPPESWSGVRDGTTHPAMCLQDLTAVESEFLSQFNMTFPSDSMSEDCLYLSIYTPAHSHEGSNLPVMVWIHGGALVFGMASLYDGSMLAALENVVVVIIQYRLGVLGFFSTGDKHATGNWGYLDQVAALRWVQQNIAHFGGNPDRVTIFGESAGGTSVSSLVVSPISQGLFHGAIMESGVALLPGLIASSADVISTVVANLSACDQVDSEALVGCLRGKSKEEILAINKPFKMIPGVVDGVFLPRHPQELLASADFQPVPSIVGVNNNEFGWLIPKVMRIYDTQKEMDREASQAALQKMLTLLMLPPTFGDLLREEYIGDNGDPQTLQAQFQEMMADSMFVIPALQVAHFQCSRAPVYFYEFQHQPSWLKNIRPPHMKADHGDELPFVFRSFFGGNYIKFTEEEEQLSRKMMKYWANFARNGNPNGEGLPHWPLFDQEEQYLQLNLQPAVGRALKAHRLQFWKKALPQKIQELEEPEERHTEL
From the text: […] (FD) was used as the hCES2A specific probe substrate to assay the inhibitory effect of natural triterpenoids on hCES2A. The entire detailed operation process refers to the previously reported method, and finally the FD mixture was put into the multi-mode microplate reader for analysis and detection.

[4] = NLMe substrate, HLM, mean ± SD (n = 3), read-out: IC50 (µM) hCES1A

Row | SMILES | IC50 [1, 4] [µM] | IC50 [2] [µM] | IC50 ([3]; FD substrate, mean ± SD (n = 3), read-out: IC50 (µM) hCES2A) [µM] | IC50 [1] [µM] | IC50 [3] [µM]
1 | CC1(C)CC[C@]2(C(=O)O)CC[C@]3(C)C(=CC[C@@H]4[C@@]5(C)CC[C@H](O)[C@@](C)(CO)[C@@H]5CC[C@]43C)[C@@H]2C1 [Compound 3, hederagenin] | 0.04 ± 0.004 | 13 ± 2.03 | 9.22 ± 1.43 | – | –
2 | C[C@H]1[C@H](C)CC[C@]2(C(=O)O)CC[C@]3(C)C(=CC[C@@H]4[C@@]5(C)C[C@@H](O)[C@H](O)[C@@](C)(CO)[C@@H]5CC[C@]43C)[C@H]12 [Compound 7, asiatic acid] | – | 12.9 ± 1.87 | – | 0.17 ± 0.02 | 65.1 ± 6.41
3 | C=C(C)[C@@H]1CC[C@]2(CO)CC[C@]3(C)[C@H](CC[C@@H]4[C@@]5(C)CC[C@H](O)C(C)(C)[C@@H]5CC[C@]43C)[C@@H]12 [Compound 12, betulin] | – | 7.47 ± 1.68 | – | > 100 | –
4 | O=[N+]([O-])c1ccc(OP(=O)(O)Oc2ccc([N+](=O)[O-])cc2)cc1 [Compound 29, Bis-p-nitrophenyl phosphate, reference compound] | 0.36 ± 0.03 | > 100 | – | – | –
5 | CC1(C)CCC2(C(=O)O)CCC3(C)C(=CCC4C5(C)CCC(=O)C(C)(C)C5CCC43C)C2C1 (stereo not shown) [Compound 30] | 0.047 ± 0.003 | 7.51 ± 1.08 | – | – | –
6 | CC(=O)OC1CCC2(C)C(CCC3(C)C2CC=C2C4CC(C)(C)CCC4(C(=O)O)CCC23C)C1(C)C (stereo not shown) [Compound 31] | – | 3.67 ± 0.72 | – | 0.051 ± 0.005 | –
7 | CC(=O)OC1CCC2(C)C(CCC3(C)C2CC=C2C4CC(C)(C)CCC4(C(N)=O)CCC23C)C1(C)C (stereo not shown) [Compound 32] | 0.11 ± 0.013 | 7.02 ± 0.59 | – | – | –
8 | CC1(C)CCC2(C(=O)O)CCC3(C)C(=CCC4C5(C)CCC(OC(=O)CCC(=O)O)C(C)(C)C5CCC43C)C2C1 (stereo not shown) [Compound 33] | 0.043 ± 0.003 | 36.4 ± 5.17 | – | – | –
9 | CCCC(=O)OC1CCC2(C)C(CCC3(C)C2CC=C2C4CC(C)(C)CCC4(C(=O)O)CCC23C)C1(C)C (stereo not shown) [Compound 34] | 0.24 ± 0.049 | > 100 | – | – | –
10 | CCCCCC(=O)OC1CCC2(C)C(CCC3(C)C2CC=C2C4CC(C)(C)CCC4(C(=O)O)CCC23C)C1(C)C (stereo not shown) [Compound 35] | 1.82 ± 0.29 | > 100 | – | – | –

Now from value to compound, other results behind:

Row | IC50 [1, 4] [µM] | IC50 [2] [µM] | IC50 ([3]; FD substrate, mean ± SD (n = 3), read-out: IC50 (µM) hCES2A) [µM] | SMILES | IC50 [1] [µM] | IC50 [3] [µM]
11 | 0.856 ± 0.15 | 30.6 ± 3.58 | – | COC(=O)C12CCC(C)(C)CC1C1=CCC3C4(C)CCC(O)C(C)(C)C4CCC3(C)C1(C)CC2 (stereo not shown) [Compound 36] | – | –
12 | 4.11 ± 0.77 | 11.8 ± 1.6 | – | CC1(C)CCC2(CO)CCC3(C)C(=CCC4C5(C)CCC(O)C(C)(C)C5CCC43C)C2C1 (stereo not shown) [Compound 37] | – | –
13 | 0.48 ± 0.06 | 7.83 ± 1.21 | – | CC1(C)CCC2(C(N)=O)CCC3(C)C(=CCC4C5(C)CCC(O)C(C)(C)C5CCC43C)C2C1 (stereo not shown) [Compound 38] | – | –
14 | 0.93 ± 0.18 | 6.94 ± 1.37 | – | CC1CCC2(C(=O)O)CCC3(C)C(=CCC4C5(C)CCC(=O)C(C)(C)C5CCC43C)C2C1C (stereo not shown) [Compound 40] | – | –
15 | – | 20.9 ± 1.78 | – | CC1CCC2(C(=O)O)CCC3(C)C(=CCC4C5(C)CCC(OC(=O)CCC(=O)O)C(C)(C)C5CCC43C)C2C1C (stereo not shown) [Compound 42] | 0.028 ± 0.003 | –
16 | 0.032 ± 0.003 | 5.21 ± 1.24 | – | CC1CCC2(C(=O)O)CCC3(C)C(=CCC4C5(C)C=C(O)C(=O)C(C)(C)C5CCC43C)C2C1C (stereo not shown) [Compound 43] | – | –
